These results are taken from patent US20040198716A1, “Cysteine protease inhimbitors” (priority 2001, published 2004).

In one data set the test system is cysteine protease. Nature of the data set: Cysteine protease inhibitory activity, no method given.
The target of another data set is α-chymotrypsin (Bos taurus, UniProt P00766, DEL14-15/DEL147-148). The data set is described as follows: Cross-reactivity protease inhibition assay (QuantiCleave), chymotrypsin. The following applies: ratio Abs450nm with inhibitor / without inhibitor; 100 μM compound. It is filed as biochemical. How it is done: (§1) To evaluate whether inhibition was specific to caspase-3 or applicable to other cysteine proteases or other proteases, inhibitor molecules were assayed for their capacity to inhibit additional non-caspase proteases. Three proteases, TPCK-trypsin, α-chymotrypsin and papain, were used to test for protease inhibition cross-reactivity. Protease inhibition assays were performed in 96-well flat-bottomed micro-titer plates with the QuantiCleave™ protease assay kit (Pierce, Rockford, Ill.) according to the manufacturer's instructions. Briefly, the assay conditions contained 100 μM compound, 2 mg/mL of succinylated-casein and 0.15 mg/mL of the protease. The assay incubated in a final volume of 150 μLs 0.05 M sodium borate pH 8.5 buffer (NaB-buffer) for 20 minutes at 25° C. After the protease reaction, 50 μLs of a trinitrobenzenesulfonic acid (TNBSA) solution (1:15, TNBSA:NaB-buffer) was added to each reaction and further incubated for 20 minutes at 25° C. Absorbance values at 450 nm were read in an Emax (Molecular Devices, Sunnyvale, Calif.) micro plate reader. Appropriate controls were performed, including known inhibitors (soybean trypsin inhibitor, aminoethyl-benzenesulfonic acid and leupeptin) for the proteases.
(§2) Relative activities in the presence of inhibitor were calculated by taking the ratio of absorbance for a reaction containing inhibitor to the absorbance for a reaction without inhibitor. Significant inhibition was determined by testing the null hypothesis of equivalence between the mean absorbance of reactions containing inhibitor and the mean absorbance of reactions without inhibitor (2 tailed t-test, 2 df).
(§3) The results are given in Table V in terms of cross-reactivities, relative activity and significant difference of 100 μM protease inhibitors on the proteases trypsin, chymotrypsin and papain.

Another data set deals with HeLa-H1 cells. Nature of the data set: Toxicity in uninfected cells of the cell culture 3C-protease assay. More on the design: key to TC50: —: the hyphens indicate no value was able to be calculated (i.e. the drug response did not cross the 50% point). The following applies: compound-treated uninfected HeLa-H1 cells, 48 hours, alamarBlue, dilution series 250-0.98 μM, several values per compound = repeat determinations; for CC50: read-out: TC50 (the source's name). It counts as cell-based. On the procedure:
(§4) In this assay, 96 well micro titer plates were seeded with 10^4 HeLa-H1 (ATCC) cells per well and incubated in DMEM+10% FBS (Gibco) for 24 hours at 37° C., saturated humidity and 5% CO2. Human Rhinovirus serotype 1A (ATCC) were titered to produce a 30% cell kill and added to some wells of a 96 well plate, other wells were mock infected with media only, followed by incubation at 33° C., saturated humidity and 5% CO2 for 1 hour. Compounds were dissolved in DMSO, diluted in DMEM and added in a 9 step 2-fold dilution series (250, 125, 62.5, 31.25, 15.63, 7.81, 3.91, 1.95, 0.98 μM) 1 hour after virus treatment. Plates were incubated for 48 hours at 33° C., saturated humidity and 5% CO2 in a final volume of 100 μL FBS free DMEM. Cell survival was measured by the addition of 10 μL of alamarBlue™ (BioSource), incubation at 33° C. for 45 minutes and reading in a fluorescence plate reader, excitation: 544 nm, emission: 590 nm. The inhibitory concentration 50% (IC50) was calculated as the concentration of compound that increased the percentage fluorescence in the compound-treated virus-infected cells to 50% of that produced by compound-free, uninfected cells. The toxicity concentration 50% (TC50) was calculated as the concentration of compound that decreased the percentage fluorescence in the compound-treated, uninfected cells to 50% of the compound-free, uninfected cells. The therapeutic index (Ti) was calculated by dividing the […].
A general note: Alamar Blue is a resazurin reagent that responds to reducing activity.

For data set [1], the target named is T1, human recombinant caspase-3 (Homo sapiens, UniProt P42574).
T1 construct: purchased Sigma
T1 sequence (P42574 29-175 limits assumed): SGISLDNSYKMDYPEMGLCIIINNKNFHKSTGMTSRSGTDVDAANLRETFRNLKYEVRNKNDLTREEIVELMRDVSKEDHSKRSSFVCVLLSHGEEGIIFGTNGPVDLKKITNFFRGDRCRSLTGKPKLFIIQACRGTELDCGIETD
T1 sequence (P42574 176-277 limits assumed): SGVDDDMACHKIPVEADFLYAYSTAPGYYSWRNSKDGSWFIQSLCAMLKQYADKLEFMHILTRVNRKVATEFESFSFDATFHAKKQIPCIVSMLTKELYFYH
Nature of the data set: In vitro high throughput caspase-3 assay. The following applies: for Ki: calculated from IC50 according to Equation 1, read-out: Ki(app); for IC50: fixed substrate concentration of 55 μM, inhibitors 75 to 0.067 μM in duplicate; for Percent Activity: percentage of the positive control, 20-250 μM test compound, lower = better inhibition, negative = better than control caspase inhibitor; for Caspase-3 Activity: relative activity as a fraction, values match Table II percent activity divided by 100. It is filed as biochemical. How it is done:
Purified Human recombinant caspase-3, fluorescence labeled substrate (Acetyl-Asp-Glu-Val-Asp-7-amino-4-trifluoromethyl coumarin), and known inhibitor (Z-Asp-Glu-Val-Asp-fluoromethyl ketone) can be purchased from Sigma Chemical Co. (St. Louis, Mo.). The enzyme reactions are carried out at room temperature in 10 mM PIPES pH=7.4, 2 mM EDTA, 0.1% CHAPS, 5 mM DTT reaction buffer. Each well on the 96 well plate contains the above reaction buffer plus 55 μM fluorescence labeled substrate, 0.125 μg caspase-3, and 20-250 μM test compound. Positive and negative controls are present on each assay plate. A standard curve is generated using 7-amino-4-trifluoromethyl coumarin in the concentration range from 0.15 μM to 5.0 μM. The reactions are preferably read every 0.5 hours using a fluorescence microtiter plate reader set for 390 nm excitation and 538 nm emission for the first 4 hours after which the plates are left at room temperature overnight. One reading is taken the next morning as a final measurement.
To determine the caspase inhibitory activity of these compounds, the in vitro high throughput caspase-3 assay presented herein was utilized. Purified human recombinant caspase-3, fluorescence labeled substrate (Acetyl-Asp-Glu-Val-Asp-7-amino-4-trifluoromethyl coumarin), and known inhibitor (Z-Asp-Glu-Val-Asp-fluoromethyl ketone) were purchased from Sigma. The enzyme reactions were carried out at room temperature in 10 mM PIPES pH=7.4, 2 mM EDTA, 0.1% CHAPS, 5 mM DTT reaction buffer. Each well on the 96 well plate contained the above reaction buffer plus 55 μM fluorescence labeled substrate, 0.125 μg caspase-3, and 20-250 μM test compound. Positive and negative controls were present on each assay plate. A standard curve was generated using 7-amino-4-trifluoromethyl coumarin in the concentration range from 0.15 μM to 5.0 μM. The reactions were read every 0.5 hours using a fluorescence microtiter plate reader set for 390 nm excitation and 538 nm emission for the first 4 hours after which the plates were left at room temperature overnight. One reading was taken the next morning as a final measurement.
Ki determinations were carried out using the above assay system. […] Ki(app) was calculated according to Equation 1: [formula]
The concentration of inhibitors ranged from 75 to 0.067 μM with each inhibitor concentration assayed in duplicate. The Km for the substrate was determined from a standard Lineweaver-Burke plot.

The test system of data set [2] is Human Rhinovirus serotype 1A. Nature of the data set: Cell Culture 3C-Protease Activity Assay (protection of rhinovirus-infected cells). The following applies: for IC50: HeLa-H1 cells infected with Human Rhinovirus serotype 1A, 48 hours, alamarBlue cell survival, dilution series 250-0.98 μM, several values per compound = repeat determinations. It is filed as cell-based. How it is done:
as §4

A further data set deals with T2, papain (Carica papaya, UniProt P00784).
T2 sequence (P00784 134-345): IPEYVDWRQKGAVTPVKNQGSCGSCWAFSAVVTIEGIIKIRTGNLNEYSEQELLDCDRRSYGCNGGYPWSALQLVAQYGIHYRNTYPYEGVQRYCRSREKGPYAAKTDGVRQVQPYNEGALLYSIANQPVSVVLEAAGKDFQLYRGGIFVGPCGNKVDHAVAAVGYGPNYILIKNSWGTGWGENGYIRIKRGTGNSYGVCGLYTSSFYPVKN
The data set is described as follows: Cross-reactivity protease inhibition assay (QuantiCleave), papain. It is filed as biochemical. The following applies: ratio Abs450nm with inhibitor / without inhibitor; 100 μM compound. On the procedure:
as §1, §2, §3

Another data set has as its target T3, TPCK-trypsin (Bos taurus, UniProt P00760).
T3 sequence (P00760 24-246): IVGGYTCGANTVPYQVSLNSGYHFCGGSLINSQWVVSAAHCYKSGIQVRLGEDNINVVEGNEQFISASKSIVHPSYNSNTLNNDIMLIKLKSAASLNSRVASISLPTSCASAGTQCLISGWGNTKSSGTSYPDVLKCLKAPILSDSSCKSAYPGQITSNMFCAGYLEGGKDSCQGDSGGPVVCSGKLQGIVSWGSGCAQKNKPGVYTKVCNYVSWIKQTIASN
Nature of the data set: Cross-reactivity protease inhibition assay (QuantiCleave), trypsin. It counts as biochemical. The following applies: ratio Abs450nm with inhibitor / without inhibitor; 100 μM compound. How it is done:
as §1, §2, §3

Data set [3] addresses T4, Human Rhinovirus serotype 1A 3C Protease (Human rhinovirus 1A, UniProt P23008).
T4 construct: used to clone the 3C Protease into the expression vector pET16-b; made in house; host or cells: E. coli BL21-DE3-pLys-S
The data set is described as follows: 3C Protease Biochemical Assay (FRET). The following applies: 30° C., 2-6uM substrate, 416 nM 3CP. How it is done: Human Rhinovirus serotype 1A (ATCC) was used to clone the 3C Protease into the expression vector pET16-b and transformed for production into the E. coli strain BL21-DE3-pLys-S. 3C Protease expression was induced with 1 mM IPTG at 25° C. and purified from the soluble protein extract by chromatography on a SourceQ (Pharmacia) followed by gel filtration. HRV 3CP activity was measured by fluorescence resonance energy transfer using a dimodified decapeptide substrate MOC-[…]DNP-NH2 (7-methoxy coumarin-4-acetic acid fluorochrome and dinitrophenol quencher) with a Km value of 16.8 μM. Inhibition was measured as a change in initial velocity (V0) as a function of inhibitor (I) concentration and substrate (S) concentration. […] Fluorescence was monitored by excitation at 328 nm and emission at 393 nm with 10 nm cutoffs. Data were analyzed with the nonlinear regression analysis program EnzFitter (BioSoft) with the equation:
Ki=(I/((VmaxxS)/V0)/Ks)−I−S
Substrate concentrations used were lower than the Km of the substrate (16.8 uM) so no corrections for an S/Km term were used.

T4 sequence (P23008 1515-1697): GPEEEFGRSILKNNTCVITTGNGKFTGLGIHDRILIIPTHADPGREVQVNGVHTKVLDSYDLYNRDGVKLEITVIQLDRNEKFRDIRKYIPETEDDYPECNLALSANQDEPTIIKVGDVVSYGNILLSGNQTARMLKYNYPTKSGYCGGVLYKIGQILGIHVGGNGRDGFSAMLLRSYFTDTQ

Consider `CC(C)=CC[C@H](O)C1=CC(=O)c2c(O)ccc(O)c2C1=O` [alkannin], for which the “cysteine protease inhibitory activity” value in the data set on cysteine protease is given as “exhibit cysteine protease inhibitory activity”.

Regarding `NCCc1ccc(S(=O)(=O)F)cc1` [AEBSF, reference compound], the “α-Chymotrypsin Activity” value at α-chymotrypsin is on record as 0.466.

The IC50 is the midpoint of a concentration-inhibition curve. As to `O=C(O)CN(CC(=O)O)Cc1cc2c(c(O)c1O)C(=O)c1ccccc1C2=O` [cpi0136.0009], the CC50 with HeLa-H1 cells was greater than 30 µM. Besides, in data set [1], the Ki is 6.16 µM, the IC50 is 38.8 µM and the “Percent Activity” value was −0.4239%. Further, the IC50 in data set [2] turned out to be 0.2 µM.

`O=C(O)CCNc1ccc(O)c2c1C(=O)c1ccccc1C2=O` [cpi0136.0012]: in the data set on HeLa-H1 cells, the CC50 was greater than 30 µM. In data set [1], the Ki is 1.24 µM, the IC50 worked out at 7.82 µM and the “Percent Activity” value was 7.846%. Moreover, half-maximal inhibition in data set [2] (IC50) required 30 µM.

For the molecule `CC(C)=CCC1=C(O)C(=O)c2ccccc2C1=O` [cpi0133], at α-chymotrypsin, the “α-Chymotrypsin Activity” value is given as 1.081. In data set [1], the “Percent Activity” value is recorded as 48.29% and the “Caspase-3 Activity” value amounted to 0.483. Moreover, on papain, the “Papain Activity” value came out at 0.897. In addition, at TPCK-trypsin, the “TPCK-Trypsin Activity” value is on record as 1.196.

For the molecule `O=C1C=CC(=O)c2c(O)ccc(O)c21` [cpi0131], in data set [3], the Ki came to 307 µM. In addition, the “α-Chymotrypsin Activity” value on α-chymotrypsin is recorded as 0.915. In addition, in data set [1], the “Percent Activity” value was −1.78% and the “Caspase-3 Activity” value is −0.0178. The “Papain Activity” value on papain is recorded as 0.505. For the same molecule, the “TPCK-Trypsin Activity” value on TPCK-trypsin is given as 0.819.

Consider `CC(=O)N[C@@H](CC(C)C)C(=O)N[C@@H](CC(C)C)C(=O)N[C@H](C=O)CCCNC(=N)N` [Leupeptin, leupeptin, reference compound], for which, on papain, the “Papain Activity” value was determined as 0.095.

As to `COc1cccc2occc(=O)c12` [cpi0409], in the data set on HeLa-H1 cells, the TC50 result was “—, and —”.

On to `CCn1cc(C(=O)O)c(=O)c2ccc(C)nc21` [cpi0176, nalidixic acid, reference compound], for which the Ki in data set [3] was 195 µM. For the same molecule, the TC50 entry with HeLa-H1 cells is “—, and —”. In addition, the “potency as an antirhinoviral agent relative to potency as an antibiotic agent” value in data set [2] is given as 10 fold.

Regarding `COC(=O)CCNc1ccc(O)c2c1C(=O)c1ccccc1C2=O` [cpi0136.NS131731], the TC50 entry in the data set with HeLa-H1 cells was “—, and —”.

`O=c1cc(-c2ccccc2)oc2cc(O)cc(O)c12` [cpi0124]: the “α-Chymotrypsin Activity” value on α-chymotrypsin is reported as 1.029. Further, in data set [1], the “Percent Activity” value is 51.49% and the “Caspase-3 Activity” value worked out at 0.515. In addition, the “Papain Activity” value at papain came out at 0.445. Further, the “TPCK-Trypsin Activity” value on TPCK-trypsin was determined as 1.075.

With `CC(C)=CC[C@@H](O)C1=CC(=O)c2c(O)ccc(O)c2C1=O` [shikonin], the “cysteine protease inhibitory activity” value with cysteine protease is “exhibit cysteine protease inhibitory activity”.

B1: STI: Soybean Trypsin Inhibitor, known inhibitor control (protein, UniProt P01070 25-205, looked up)
Trypsin inhibitor A: DFVLDNEGNPLENGGTYYILSDITAFGGIRAAPTGNERCPLTVVQSRNELDKGIGTIISSPYRIRFIAEGHPLSLKFDSFAVIMLCVGIPTEWSVVEDLPEGPAVKIGENKDAMDGWFRLERVSDDEFNNYKLVFCPQQAEDDKCGDIGISIDHDDGTRRLVVSKNKPLVVQFQKLDKESL
On to B1, for which the “TPCK-Trypsin Activity” value in the data set with TPCK-trypsin amounted to 0.017.
